Measured values from ChEMBL document CHEMBL1201862, “PubChem BioAssay data set” (2004).
One block for each compound: values may come before it. The source made the active and inactive calls.

Experiments:
[1] = biological target: Mothers against decapentaplegic homolog 3 (Homo sapiens, UniProt P84022); test: Smad3 binding inhibitors, lysate ELISA, dose response, cell lysate, secondary confirmation, chemiluminescent ELISA, HEK293 lysate (AID 1058); type: functional
[2] = inhibitors of intracellular T. cruzi replication, confirmation, NIH3T3 host cells, beta-gal luminescence (AID 2044); type: functional, cell-based;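 further: intracellular parasites grown in NIH/3T3 mouse fibroblasts as host cells; luminescent beta-galactosidase reporter signal from transgenic T. cruzi replicating inside host cells; inhibitors lower the luminescence signal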
[3] = cytotoxicity toward NIH3T3 fibroblasts, dose response, counter-screen, cell-based, ATP luminescence, mouse fibroblasts (AID 2010); type: functional;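 further: cells exposed to compound for about 90 hours before reading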
HeLa = test: HeLa cell cytotoxicity, dose response, cytotoxicity control, 24 h, cherry-picked samples (AID 504726); type: functional, cell-based; settings: Homo sapiens;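 further: potency for cytotoxicity as loss of luminescence signal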
[4] = biological target: Melanin-concentrating hormone receptor 1 (Homo sapiens, UniProt Q99705); test: Fluorescence-based counterscreen for antagonists of the G-protein coupled receptor 7 (GPR7): cell-based high throughput dose response assay to identify antagonists of the melanin-concentrating hormone receptor 1 (MCHR1).; type: functional
[5] = biological target: Photoreceptor-specific nuclear receptor (Homo sapiens, UniProt Q9Y5X4); type: functional;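 further: potency for compounds that break the NR2E3 corepressor complex and count as activators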
[6] = biological target: Peroxisome proliferator-activated receptor gamma/Nuclear receptor corepressor 2 (Homo sapiens, UniProt P37231+Q9Y618); type: functional
Peroxisome proliferator-activated receptor gamma/Nuclear receptor corepressor 2, sequence (P37231 whole entry): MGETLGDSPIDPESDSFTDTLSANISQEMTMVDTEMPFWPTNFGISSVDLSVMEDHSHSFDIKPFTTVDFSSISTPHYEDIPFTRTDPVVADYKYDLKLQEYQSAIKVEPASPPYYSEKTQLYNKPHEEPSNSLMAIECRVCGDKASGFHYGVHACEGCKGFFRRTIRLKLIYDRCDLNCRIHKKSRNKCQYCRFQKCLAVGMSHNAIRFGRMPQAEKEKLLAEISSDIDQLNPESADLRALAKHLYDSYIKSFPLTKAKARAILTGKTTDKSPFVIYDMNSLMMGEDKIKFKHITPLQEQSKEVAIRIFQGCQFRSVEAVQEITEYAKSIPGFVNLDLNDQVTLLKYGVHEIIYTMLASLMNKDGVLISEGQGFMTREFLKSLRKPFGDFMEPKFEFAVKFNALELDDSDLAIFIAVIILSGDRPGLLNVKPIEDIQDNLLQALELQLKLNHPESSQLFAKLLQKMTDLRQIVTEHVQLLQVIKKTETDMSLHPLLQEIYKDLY
Peroxisome proliferator-activated receptor gamma/Nuclear receptor corepressor 2, sequence (Q9Y618 whole entry): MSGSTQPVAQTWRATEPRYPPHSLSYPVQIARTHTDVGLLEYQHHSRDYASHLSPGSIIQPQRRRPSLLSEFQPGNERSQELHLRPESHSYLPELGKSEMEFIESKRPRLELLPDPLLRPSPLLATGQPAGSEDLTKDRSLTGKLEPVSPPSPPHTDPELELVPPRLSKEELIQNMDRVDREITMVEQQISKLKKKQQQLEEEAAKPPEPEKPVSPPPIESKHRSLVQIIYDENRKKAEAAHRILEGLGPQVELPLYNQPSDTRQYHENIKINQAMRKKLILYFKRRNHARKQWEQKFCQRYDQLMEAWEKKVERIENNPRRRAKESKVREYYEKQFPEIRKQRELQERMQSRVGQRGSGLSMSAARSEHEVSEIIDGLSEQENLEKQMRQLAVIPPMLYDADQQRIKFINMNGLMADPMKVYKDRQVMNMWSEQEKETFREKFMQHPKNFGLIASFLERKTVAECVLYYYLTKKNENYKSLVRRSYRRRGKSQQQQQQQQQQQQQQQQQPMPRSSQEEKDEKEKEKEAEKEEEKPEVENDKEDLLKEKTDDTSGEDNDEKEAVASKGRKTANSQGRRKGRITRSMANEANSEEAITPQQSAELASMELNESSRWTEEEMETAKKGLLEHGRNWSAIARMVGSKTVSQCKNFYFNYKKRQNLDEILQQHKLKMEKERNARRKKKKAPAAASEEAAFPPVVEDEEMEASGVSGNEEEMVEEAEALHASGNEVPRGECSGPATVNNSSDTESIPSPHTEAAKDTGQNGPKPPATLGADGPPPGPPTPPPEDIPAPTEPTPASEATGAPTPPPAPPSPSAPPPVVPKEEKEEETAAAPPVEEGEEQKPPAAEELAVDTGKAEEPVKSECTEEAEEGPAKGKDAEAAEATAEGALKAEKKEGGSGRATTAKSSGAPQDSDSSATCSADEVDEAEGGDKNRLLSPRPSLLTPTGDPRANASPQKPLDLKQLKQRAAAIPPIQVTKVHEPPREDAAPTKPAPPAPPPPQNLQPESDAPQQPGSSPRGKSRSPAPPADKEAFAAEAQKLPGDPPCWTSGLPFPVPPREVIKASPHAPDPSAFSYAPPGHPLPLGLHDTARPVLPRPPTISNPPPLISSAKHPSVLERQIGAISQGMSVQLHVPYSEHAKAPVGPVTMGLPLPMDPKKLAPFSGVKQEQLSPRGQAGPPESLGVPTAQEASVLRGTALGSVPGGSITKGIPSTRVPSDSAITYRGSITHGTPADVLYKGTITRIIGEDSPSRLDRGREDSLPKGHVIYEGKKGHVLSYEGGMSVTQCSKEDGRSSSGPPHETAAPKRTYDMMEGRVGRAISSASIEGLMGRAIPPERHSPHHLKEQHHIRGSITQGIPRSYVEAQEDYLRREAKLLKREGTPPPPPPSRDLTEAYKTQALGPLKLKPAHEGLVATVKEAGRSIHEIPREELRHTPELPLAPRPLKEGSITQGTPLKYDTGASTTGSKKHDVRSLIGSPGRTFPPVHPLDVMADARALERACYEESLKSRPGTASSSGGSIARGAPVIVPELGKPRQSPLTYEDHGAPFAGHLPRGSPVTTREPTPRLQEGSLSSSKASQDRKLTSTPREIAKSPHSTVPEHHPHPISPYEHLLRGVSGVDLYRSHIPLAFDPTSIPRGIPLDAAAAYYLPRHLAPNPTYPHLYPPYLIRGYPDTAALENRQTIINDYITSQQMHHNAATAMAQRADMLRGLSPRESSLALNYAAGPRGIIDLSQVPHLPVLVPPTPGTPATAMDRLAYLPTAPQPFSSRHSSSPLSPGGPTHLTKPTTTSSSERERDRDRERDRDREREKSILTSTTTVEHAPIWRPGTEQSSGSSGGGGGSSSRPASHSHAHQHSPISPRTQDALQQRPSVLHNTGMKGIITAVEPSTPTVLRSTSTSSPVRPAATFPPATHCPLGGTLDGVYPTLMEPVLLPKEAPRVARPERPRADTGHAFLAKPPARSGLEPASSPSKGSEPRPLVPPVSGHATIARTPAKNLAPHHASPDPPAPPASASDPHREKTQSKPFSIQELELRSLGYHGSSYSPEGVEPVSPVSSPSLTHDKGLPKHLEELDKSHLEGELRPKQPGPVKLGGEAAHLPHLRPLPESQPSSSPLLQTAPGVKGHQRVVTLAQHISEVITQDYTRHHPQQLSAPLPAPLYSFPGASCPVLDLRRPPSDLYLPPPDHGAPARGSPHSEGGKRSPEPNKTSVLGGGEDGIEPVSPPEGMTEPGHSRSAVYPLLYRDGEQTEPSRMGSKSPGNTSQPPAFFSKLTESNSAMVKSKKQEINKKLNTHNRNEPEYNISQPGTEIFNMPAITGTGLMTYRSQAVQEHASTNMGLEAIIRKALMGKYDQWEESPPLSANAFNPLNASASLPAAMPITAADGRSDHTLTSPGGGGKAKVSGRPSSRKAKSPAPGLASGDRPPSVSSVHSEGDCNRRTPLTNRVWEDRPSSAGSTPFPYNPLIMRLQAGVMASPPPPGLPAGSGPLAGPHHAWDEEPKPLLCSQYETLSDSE

Staphylococcus aureus = test: Inhibitors of Bacterial Quorum Sensing Structure Activity Relationship (SAR) Analysis: Dose Response Assay. [Related pubchem assays: 700, 527 ]; type: functional, organism-based
Aspartyl aminopeptidase = biological target: T1, Aspartyl aminopeptidase (Plasmodium falciparum 3D7, UniProt Q8I2J3)
T1 sequence (Q8I2J3 whole entry): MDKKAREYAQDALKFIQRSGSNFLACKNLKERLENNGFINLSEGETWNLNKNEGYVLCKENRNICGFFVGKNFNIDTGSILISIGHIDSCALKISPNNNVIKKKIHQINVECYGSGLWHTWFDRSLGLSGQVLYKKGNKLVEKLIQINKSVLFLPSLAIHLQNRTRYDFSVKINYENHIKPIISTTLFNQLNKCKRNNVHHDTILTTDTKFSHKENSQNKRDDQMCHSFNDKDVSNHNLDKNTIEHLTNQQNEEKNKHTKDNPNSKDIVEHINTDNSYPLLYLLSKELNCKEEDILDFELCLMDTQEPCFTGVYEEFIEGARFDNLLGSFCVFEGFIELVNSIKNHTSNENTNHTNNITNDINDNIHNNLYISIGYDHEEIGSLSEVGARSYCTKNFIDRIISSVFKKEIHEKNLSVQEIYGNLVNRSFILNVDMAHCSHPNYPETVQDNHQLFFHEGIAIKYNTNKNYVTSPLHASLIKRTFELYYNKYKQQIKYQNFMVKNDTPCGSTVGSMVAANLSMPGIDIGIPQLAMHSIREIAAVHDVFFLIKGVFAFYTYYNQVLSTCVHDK

Procathepsin L = Procathepsin L (Homo sapiens, UniProt P07711)
[7] = Luminescence-based dose response cell-based high throughput screening assay for cytotoxic compounds using the IEC-6 intestinal epithelial cell line. [Related pubchem assays: 1858 (Summary AID.), 1825 (Counterscreen.), 1907 (Confirmation screen.)]; type: functional
BJ [8] = test: cells; type: functional, cell-based; settings: Homo sapiens
BJ [9] = test: cytotoxicity toward BJ-TERT fibroblasts, dose response, cell-based, RAS-independent, luminescence (AID 1933); type: functional; settings: Homo sapiens
BJ [10] = test: cytotoxicity toward BJ-TERT-LT-ST fibroblasts, dose response, cell-based, RAS-independent, luminescence (AID 1935); type: functional; settings: Homo sapiens;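 further: BJ fibroblasts immortalized with TERT plus LT and ST oncogenes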
SUMO-activating enzyme [11] = biological target: T2, SUMO-activating enzyme (Homo sapiens, UniProt Q9UBT2); test: inhibitors of in vitro SUMOylation cascade, primary screen, biochemical, HTRF, uHTS (AID 2006); type: protein-complex assay
T2 sequence (Q9UBE0 whole entry): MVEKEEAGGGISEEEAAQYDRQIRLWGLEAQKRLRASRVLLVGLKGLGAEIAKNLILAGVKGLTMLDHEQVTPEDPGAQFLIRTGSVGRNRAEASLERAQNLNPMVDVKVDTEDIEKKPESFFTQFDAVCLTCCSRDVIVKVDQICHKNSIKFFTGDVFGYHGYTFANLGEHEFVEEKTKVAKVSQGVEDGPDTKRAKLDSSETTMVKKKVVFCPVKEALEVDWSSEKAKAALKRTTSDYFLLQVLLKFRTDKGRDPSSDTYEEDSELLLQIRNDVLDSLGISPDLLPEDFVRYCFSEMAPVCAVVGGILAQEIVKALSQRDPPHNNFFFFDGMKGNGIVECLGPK
T2 sequence (Q9UBT2 whole entry): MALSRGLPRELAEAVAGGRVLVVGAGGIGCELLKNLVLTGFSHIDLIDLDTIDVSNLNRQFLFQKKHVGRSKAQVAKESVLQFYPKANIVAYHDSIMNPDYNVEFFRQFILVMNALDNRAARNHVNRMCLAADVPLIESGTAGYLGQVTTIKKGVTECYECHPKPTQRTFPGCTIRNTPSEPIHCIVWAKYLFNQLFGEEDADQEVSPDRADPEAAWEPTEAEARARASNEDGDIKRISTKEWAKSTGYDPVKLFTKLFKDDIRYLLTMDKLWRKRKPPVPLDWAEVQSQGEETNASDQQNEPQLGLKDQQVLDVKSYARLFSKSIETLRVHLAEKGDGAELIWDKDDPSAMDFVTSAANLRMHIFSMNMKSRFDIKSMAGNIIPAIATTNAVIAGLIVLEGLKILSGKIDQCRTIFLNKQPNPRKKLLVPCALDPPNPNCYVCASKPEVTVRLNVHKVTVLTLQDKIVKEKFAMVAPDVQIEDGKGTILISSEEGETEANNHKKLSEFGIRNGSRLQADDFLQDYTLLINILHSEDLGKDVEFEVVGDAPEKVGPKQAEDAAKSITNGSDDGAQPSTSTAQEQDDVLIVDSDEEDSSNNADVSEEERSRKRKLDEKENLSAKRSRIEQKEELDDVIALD

Galanin receptor type 2 = Galanin receptor type 2 (Homo sapiens, UniProt O43603); test: Dose Response cell-based high-throughput screening assay to identify agonists of galanin receptor 2 (GALR2). [Related pubchem assays: 864 ]; type: functional
Galanin receptor type 2, sequence (O43603 whole entry): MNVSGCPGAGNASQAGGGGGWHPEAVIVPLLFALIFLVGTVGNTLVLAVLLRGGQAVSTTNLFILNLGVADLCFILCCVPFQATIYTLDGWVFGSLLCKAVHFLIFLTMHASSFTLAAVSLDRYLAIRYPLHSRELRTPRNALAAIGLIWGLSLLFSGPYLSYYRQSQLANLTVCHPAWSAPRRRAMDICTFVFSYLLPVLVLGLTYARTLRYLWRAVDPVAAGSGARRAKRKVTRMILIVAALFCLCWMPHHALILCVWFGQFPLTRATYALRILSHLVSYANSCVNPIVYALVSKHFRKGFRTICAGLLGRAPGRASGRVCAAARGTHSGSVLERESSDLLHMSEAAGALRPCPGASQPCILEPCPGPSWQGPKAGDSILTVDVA

SUMO-activating enzyme [12] = biological target: T2, SUMO-activating enzyme; test: SUMOylation inhibitor hit validation, confirmation, SUMOylation inhibitor project, biochemical, AlphaScreen (AID 2018); type: functional
[13] = cytotoxicity toward DRD oncogenic fibroblasts, dose response, cell-based, non-viral oncogenic, luminescence (AID 1934); type: functional; settings: Homo sapiens
[14] = biological target: Neuropeptide Y receptor type 2 (Homo sapiens, UniProt P49146); test: Fluorescence-based cell-based high-throughput dose response assay for agonists of NPY-Y2. [Related pubchem assays: 1703 (Screening assay (CNGC inhibitors).), 1359 (Screening assay (NPY-Y2 potentiators or agonists).), 1304 (Screening assay (NPY-Y1 potentiators or agonists).), 1710 (Screening assay (NPY-Y2 agonists).), 1791 (Summary AID.)]; type: functional
[15] = biological target: Neuropeptide Y receptor type 1 (Homo sapiens, UniProt P25929); test: Fluorescence-based counterscreen for agonists of NPY-Y2: cell-based high-throughput dose response assay for agonists of NPY-Y1.; type: functional
Neuropeptide Y receptor type 1, sequence (P25929 whole entry): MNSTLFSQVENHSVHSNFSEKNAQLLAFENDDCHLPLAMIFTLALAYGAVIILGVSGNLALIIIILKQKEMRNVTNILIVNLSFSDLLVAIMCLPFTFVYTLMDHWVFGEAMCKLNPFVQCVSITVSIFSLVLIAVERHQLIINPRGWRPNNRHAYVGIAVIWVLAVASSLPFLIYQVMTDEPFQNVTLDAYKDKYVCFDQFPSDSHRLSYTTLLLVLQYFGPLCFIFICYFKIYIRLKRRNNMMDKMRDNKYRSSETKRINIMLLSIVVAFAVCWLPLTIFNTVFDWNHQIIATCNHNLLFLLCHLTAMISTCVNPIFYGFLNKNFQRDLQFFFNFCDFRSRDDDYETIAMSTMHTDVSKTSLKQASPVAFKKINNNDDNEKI

Vero = Vero cell cytotoxicity, cytotoxicity control for flavivirus capping enzyme inhibitors (AID 588742); type: functional; settings: Chlorocebus sabaeus
HEK293 = test: Fluorescence-based counterscreen for potentiators or agonists of NPY-Y2: cell-based high-throughput dose response assay to identify inhibitors of cyclic nucleotide gated ion channel (CNGC) activity. In this assay, the parental HEK293 cell line transfected with a cyclic-nucleotide gated ion channel (CNGC)-based cAMP sensor is used to measure inhibition of isoproterenol-induced CNGC activity by test compound.; type: functional; settings: Homo sapiens;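 further: stimulus is 1 µM isoproterenol at EC100 plus PDE inhibitor Ro 20-1724 at 25 µM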

IC50 [1]: > 40 µM (not active)
Structure (SMILES): COc1ccc(C(c2cc3c(cc2O)OCO3)N2CCCCC2)c(OC)c1 (stereo not drawn)

Structure (SMILES): CCN(CC(=O)NCc1cccs1)C(=O)c1ccc([N+](=O)[O-])o1
EC50 [2]: < 0.1 µM (active) | EC50 (cells): 0.047 µM (active) | EC50 [3]: > 30 µM (not active)

Structure (SMILES): Cc1cccc(Nc2nc(N)c([N+](=O)[O-])c(NCc3ccccc3)n2)c1
AC50 (HeLa): 25 µM (active)

IC50 [4]: 30.3 µM (not active)
Structure (SMILES): COc1ccnc(Oc2ccc(F)cc2)c1C(=O)N=CNOCc1ccc(F)cc1

IC50 [5]: > 39.8 µM (not active) | IC50 [6]: 2.33 µM (active)
Structure (SMILES): O=C(O)C1CCN(c2nc(-c3ccccc3)c3cc(Br)ccc3n2)CC1

Structure (SMILES): O=C(O)c1cccnc1Nc1cccc(SC(F)(F)F)c1
IC50 (Staphylococcus aureus): 0.964 µM (active)

IC50 (Aspartyl aminopeptidase): 0.854 µM (active) | IC50 (Procathepsin L): > 59.6 µM (not active)
Structure (SMILES): COc1cc([N+](=O)[O-])ccc1N=C(S)Nn1cnnc1

Structure (SMILES): CCN1CCCC1CNC(=O)C1CCN(Cc2nc(-c3cccc(Br)c3)oc2C)CC1 (stereo not drawn)
IC50 [7]: 6.51 µM (active)

Structure (SMILES): Cc1ccc2nsnc2c1NC(=O)c1ccc(-c2cc(Cl)ccc2Cl)o1
EC50 (BJ [8]): 14.4 µM (inconclusive) | EC50 (BJ [9]): 3.86 µM (inconclusive) | EC50 (BJ [10]): 6.11 µM (inconclusive) | IC50 (SUMO-activating enzyme [11]): 4.64 µM (active) | EC50 (Galanin receptor type 2): > 55.7 µM (not active) | IC50 (SUMO-activating enzyme [12]): 18 µM (active) | EC50 [13]: 5.89 µM (active)

Structure (SMILES): O=S(=O)(c1cccc(NC(=S)N2CCN(c3cccc(Cl)c3)CC2)c1)C(F)F
EC50 [14]: > 35.4 µM (not active) | EC50 [15]: > 35.4 µM (not active) | CC50 (Vero): > 40 µM (active) | EC50 (HEK293): > 35.4 µM (not active)
